Experimental data as given in patent US10766940B2, “Brain penetrant amylin receptor based peptides for Alzheimer's disease” (The Governors of the University of Alberta, priority 2016, dated 2020).
Positions of bridges follow the written chain, without caps; N, C: chain ends. Non-standard residues stand in square brackets, D forms with d. Residues, ends and D or L forms follow the SMILES beside them. No end group written: not given here. Cy5.5 = near-infrared dye, attached as Cy5.5-NHS ester; βAla = NCCC(=O)O

Columns and labels:
AMY1 = target: T1, AMY1 (Homo sapiens, UniProt O60894+P30988); test: Peptide array-cell binding assay, AMY1 transfected cells; settings: membrane screening AMY1-3 subtypes
T1 construct: expressed in transfected cells

[1] = In vivo pharmacokinetics and bio-distribution of cAC253
Description: There were 3 mice in each dose group. After 2 hours the mice were sacrificed to collect their brains which were imaged in a Kodak imager. […] The heart, liver, lung, spleen, intestine, stomach, kidney and brain were excised after perfusion with PBS, and kept in dry ice before Kodak imaging. Fluorescence was quantified, and analyzed as previously.

[2] = In vivo and ex vivo NIRF brain imaging after ip injection, wild-type mice; settings: for ability to penetrate the blood brain barrier: single ip administration, wild-type mice, NIR fluorescence
Description: For in vivo imaging experiments, 6-12 month-old TgCRND8, age-matched wild-type littermate, and heterozygous CTR knockdown mice (50% CTR expression level compared to wild type control mice and presumably with 50% AMY receptor expression level) were used (n=5 in each group). The animals were anesthetized with ketamine ip injection. The fur was shaved from the head and dorsal side of the body to avoid laser scattering caused by hair. […] Wild type mice injected with 200 μl saline were used as a background.
Images were acquired with a Kodak IS2000MM Image station (GE Healthcare Systems/ART Inc.), excitation filter 625/20 band pass, emission filter 700 W band pass, light source was 150 W quartz halogen lamp set to 100 (max). Images were captured with a CCD camera set to F stop=0, FOV=150, FP=0. Exposure time was 2 min per image for NIRF image and 1 s for visible image. To evaluate for fluorescence concentration, the region of interest was drawn around the brain region and analyzed using the Kodak ID 3.6 software and the mean fluorescence intensity was recorded.

[3] = Lipophilicity, shake flask 1-octanol/water partition; type: physicochemical
Description: Peptides hydrophobicity was determined using the shake flask method and 1-octanol/water partition coefficient (log Po/w) was determined. […] Peptide concentration (area) in both phases (1-octanol and water) were analyzed by RP-HPLC. The final log Po/w value was calculated by dividing the concentration (C) of the peptide in the two phases as presented by the area under the peak (partition coefficients=C1-octanol/Cwater).

[4] = In vivo competition with unlabeled cAC253, ex vivo brain fluorescence; set-up: species or system mouse; settings: 40 μg Cy5.5 cAC253 + 5-fold excess (200 μg) unlabeled cAC253 ip, 2 hr
Description: Additionally, a competition in vivo experiment was also carried out. […] Brains were then extracted and scanned ex-vivo for fluorescence concentration. For ex vivo histological study, brains were excised and embedded in OCT, then sliced into 20-μm slices, co-stained with DAPI in mounting medium.

[5] = Peptide stability in human serum; type: in vitro ADME; settings: 37° C.
Description: For the serum stability experiments, human serum or liver homogenate (250 μL) were added to DMEM medium (650 μL) in a 1.5 mL Eppendorf tube to mimic a biological system. The temperature was equilibrated at 37±1° C. for 30 minutes before adding 100 μL of the peptide stock solution (1 mM solution in 10% DMSO in sterile water). An aliquot of reaction solution (100 μL) was removed from the sample at different time points 0, 3, 5, 10, 20, and 30 minutes added to pure methanol (300 μL) for precipitation of the serum proteins present in the human serum proteins by centrifugation (10,000 rpm, 5 minutes). The clear supernatant was analyzed by reversed phase HPLC, and the appropriate fractions were collected for identification using MALDI-TOF. Proteolysis kinetics of the peptides was analyzed by following the decrease in the concentration of the intact peptide as a function of time. The t1/2 half-lives of peptides were calculated.

[6] = after ip injection, 2 h, brain homogenate fluorescence vs standard

T1 sequence (P30988 25-474): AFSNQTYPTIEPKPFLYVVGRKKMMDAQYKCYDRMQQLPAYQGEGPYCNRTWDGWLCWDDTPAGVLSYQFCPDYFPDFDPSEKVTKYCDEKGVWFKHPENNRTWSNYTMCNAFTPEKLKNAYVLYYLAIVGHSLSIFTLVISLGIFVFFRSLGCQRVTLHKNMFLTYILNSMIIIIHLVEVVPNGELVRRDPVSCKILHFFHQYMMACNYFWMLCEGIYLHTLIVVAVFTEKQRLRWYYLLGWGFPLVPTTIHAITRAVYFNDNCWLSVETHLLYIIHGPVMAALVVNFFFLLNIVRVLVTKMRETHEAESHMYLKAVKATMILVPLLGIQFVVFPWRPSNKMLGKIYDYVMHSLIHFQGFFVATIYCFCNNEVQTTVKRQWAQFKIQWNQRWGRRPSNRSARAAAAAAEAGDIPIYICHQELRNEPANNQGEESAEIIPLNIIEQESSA
T1 sequence (O60894 27-148 partner): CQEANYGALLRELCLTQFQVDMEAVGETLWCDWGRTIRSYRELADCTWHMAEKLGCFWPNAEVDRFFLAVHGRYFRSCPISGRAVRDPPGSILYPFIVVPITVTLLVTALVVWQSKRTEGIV

RLQTYPRTNTGS (RLQTYPRTNTGS-NH2) [R10]
binding to AMY1 cells on peptide array (fluorescence) (AMY1): AMY1 specific peptide

Cy5-cAC253: cAC253 with extra β-alanine spacer, N-terminally labeled with near-infrared dye Cy5.5-NHS ester ({Cy5.5-βAla}-[dC]LGRLSQELHRLQTYPRTNTGSNTY[dC]-NH2; disulfide 1-26)
half-life of brain fluorescence signal ([1]; mouse, in vivo, ip, 20 mg/kg): 16 h

CC[C@H](C)[C@H](NC(=O)[C@H](C)NC(=O)[C@@H](N)Cc1c[nH]cn1)C(=O)N[C@@H](Cc1ccc(O)cc1)C(=O)N1CCC[C@H]1C(=O)N[C@@H](CCCNC(=N)N)C(=O)N[C@@H](Cc1c[nH]cn1)C(N)=O [T7, HAIYPRH, reference compound]
clearance from the brain at 6 h ([2]; mouse, in vivo, ip): rapid clearance from the brain

CC(C)C[C@@H]1NC(=O)[C@H](N)CSSC[C@H](C(N)=O)NC(=O)[C@H](Cc2ccc(O)cc2)NC(=O)[C@H]([C@@H](C)O)NC(=O)[C@H](CC(N)=O)NC(=O)[C@H](CO)NC(=O)CNC(=O)[C@H]([C@@H](C)O)NC(=O)[C@H](CC(N)=O)NC(=O)[C@H]([C@@H](C)O)NC(=O)[C@H](CCCNC(=N)N)NC(=O)[C@@H]2CCCN2C(=O)[C@H](Cc2ccc(O)cc2)NC(=O)[C@H]([C@@H](C)O)NC(=O)[C@H](CCC(N)=O)NC(=O)[C@H](CC(C)C)NC(=O)[C@H](CCCNC(=N)N)NC(=O)[C@H](Cc2c[nH]cn2)NC(=O)[C@H](CC(C)C)NC(=O)[C@H](CCC(=O)O)NC(=O)[C@H](CCC(N)=O)NC(=O)[C@H](CO)NC(=O)[C@H](CC(C)C)NC(=O)[C@H](CCCNC(=N)N)NC(=O)CNC1=O [cAC253] (H-[dC]LGRLSQELHRLQTYPRTNTGSNTY[dC]-NH2; disulfide 1-26; N-terminus assumed)
logP ([3]; 1-octanol/water shake flask, read-out: log P): -1.05
Partition coefficient ([3]; Table 2, 1-octanol/PBS shake flask): 1.22
ex-vivo brain fluorescence signal relative to saline injection ([2]; 2 h post ip injection, 0.1 mmol in 200 μl saline): 2.8 fold
further increase of brain fluorescence level at 6 h ([2]; 6 h post-ip injection, 0.01 mmol): 20%
ability to penetrate the blood brain barrier [2]: penetrate the blood brain barrier
reduction of brain fluorescence signal by excess unlabeled cAC253 [4]: 75%
bio-distribution in organs ([1]; 2 h after injecting 20 mg/kg): mainly observed in the eliminating organs such as kidneys, liver and in the injection sites (intestine)
stability in human serum relative to AC253 [5]: seven-fold increase
stability in human serum relative to AC253 ([5]; listed as Cyclic-AC253): 7 times
half-life ([5]; human, serum, RP-HPLC of intact peptide): 7 h
brain concentration [6]: 10 to 100 nM

C[N+]1=C(C=CC=CC=C2N(CCCCCC(=O)ON3C(=O)CCC3=O)c3ccc4ccccc4c3C2(C)C)C(C)(C)c2c1ccc1ccccc21.[Cl-] [Cy5 dye, Cyanine5.5 NHS ester dye, reference compound]
ability to penetrate the blood brain barrier [2]: could not on its own cross the BBB
